Source: PubChem BioAssay (NCI)
Values joined by “and” are separate entries in the source; they are usually repeats but may differ in a detail not shown here. Equal entries are not always repeated.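 How tested: cells in 96-well plates exposed to compound for 48 hours at five concentrations. GI50 = concentration required for 50% inhibition of growth. TGI is the concentration that stops growth completely.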

Columns and labels:
Experiment in all cases: DTP human tumour cell line panel, 48 h
OVCAR-8 ovarian = tested on: OVCAR-8 ovarian
KM12 colon = tested on: KM12 colon
K-562 leukemia = tested on: K-562 leukemia
SK-MEL-5 melanoma = tested on: SK-MEL-5 melanoma
HCT-116 colon = tested on: HCT-116 colon
MALME-3M melanoma = tested on: MALME-3M melanoma
HL-60(TB) leukemia = tested on: HL-60(TB) leukemia
HT29 colon = tested on: HT29 colon
SF-268 CNS = tested on: SF-268 CNS
MOLT-4 leukemia = tested on: MOLT-4 leukemia

Row | SMILES | GI50 (OVCAR-8 ovarian) | TGI (OVCAR-8 ovarian) | GI50 (KM12 colon) [µM] | TGI (KM12 colon) | GI50 (K-562 leukemia) | TGI (K-562 leukemia) | GI50 (SK-MEL-5 melanoma) | TGI (SK-MEL-5 melanoma) | GI50 (HCT-116 colon) [µM] | TGI (HCT-116 colon) | GI50 (MALME-3M melanoma) [µM] | TGI (MALME-3M melanoma) [µM] | GI50 (HL-60(TB) leukemia) | TGI (HL-60(TB) leukemia) | GI50 (HT29 colon) [µM] | TGI (HT29 colon) | GI50 (SF-268 CNS) | TGI (SF-268 CNS) | GI50 (MOLT-4 leukemia) | TGI (MOLT-4 leukemia)
1 | C#Cc1cccc(NC(=O)C2CCCN(C(=O)CCl)C2)c1 (configuration not stated) | 61.8 µM | > 82.5 µM | > 82.5 | > 82.5 µM | 36.6 µM | > 82.5 µM | 29.7 µM | > 82.5 µM | 45.9 | > 82.5 µM | 18.1 | 78.6 | > 82.5 µM | > 82.5 µM | > 82.5 | > 82.5 µM | > 82.5 µM | > 82.5 µM | 23.4 µM | 75.1 µM
2 | O=c1cccccc1[O-].O=c1cccccc1[O-].O=c1cccccc1[O-].[Sm+3] |  | > 100 µM |  | > 100 µM |  | > 100 µM |  | 89.9 µM |  | 94.5 µM |  | > 100 |  | > 100 µM |  | > 100 µM |  |  |  | > 100 µM
3 | CC(=O)[O-].[Mn+3].[O-]c1ccc(Cl)cc1C=NCCN=Cc1cc(Cl)ccc1[O-] | > 100 µM | > 100 µM | > 100 | > 100 µM | > 100 µM | > 100 µM | 88.5 µM | > 100 µM | > 100 | > 100 µM | 34.7 | > 100 | 50.7 µM | > 100 µM | > 100 | > 100 µM | > 100 µM | > 100 µM | > 100 µM | > 100 µM
4 | O=C(CC1=Nc2nnc(-c3nnc4n3C(=O)C(CC(=O)C3CC3)=N4)n2C1=O)C1CC1 |  |  |  | > 100 µM |  | > 100 µM |  | > 100 µM |  | > 100 µM |  | > 100 |  | > 100 µM |  | > 100 µM |  | > 100 µM |  | > 100 µM
5 | COC(=O)c1sc(=NC(=S)N2CCCCC2)sc1C(=O)OC |  | > 100 µM |  | > 100 µM |  | > 100 µM |  | > 100 µM |  | > 100 µM |  | > 100 |  | > 100 µM |  |  |  | > 100 µM |  | > 100 µM
6 | OCCCCC#Cc1ccccc1C#Cc1ccc(C(F)(F)F)cc1 | 17.4 µM | 33.2 µM | 13.9 | 29.8 µM | 18.2 µM | 43.6 µM | 17.8 µM | 33.3 µM | 16.9 | 35.8 µM | 19.7 | 35.5 | 17.7 µM | 38.8 µM | 3.43 | 18.1 µM | 22 µM | 48 µM | 13.6 µM | 31.4 µM
7 | CN(C)c1ccc(C2CC(C)(O)Oc3cc4c(cc32)OCO4)cc1 (configuration not stated) |  | 94.7 µM |  | > 100 µM |  | > 100 µM |  | > 100 µM |  | > 100 µM |  | > 100 |  | > 100 µM |  | 76.1 µM |  | > 100 µM |  | > 100 µM
8 | C=C(Cl)[C@@](Cl)(CBr)CC[C@@H](Br)C(C)(C)Cl |  |  |  | 2.36 µM and 0.689 µM | 1.7 µM | > 100 µM and 23.5 µM | 19.5 µM | > 100 µM and 21.3 µM |  | 1.25 µM and 0.635 µM |  | 42.9 | 0.0686 µM | > 100 µM and 10.5 µM | 1.28 | 4.48 µM and 0.635 µM |  | 3.01 µM and 0.838 µM | 17.5 µM | 58.4 µM and 63.8 µM
9 | COc1ccc2c(c1)[n+](=O)c(C(C)=O)c(C)n2[O-] |  | > 100 µM |  | > 100 µM |  | > 100 µM |  | > 100 µM |  | > 100 µM |  | > 100 |  | > 100 µM |  | > 100 µM |  | > 100 µM |  | > 100 µM
10 | O=c1[nH]c2ccc([N+](=O)[O-])c(Cl)c2c2ccccc12 |  | 3.56 µM |  | 4.52 µM |  | > 100 µM |  | 13 µM |  | > 100 µM |  | 27.6 |  | 16.6 µM |  | 10.6 µM |  | 10.6 µM |  | 31.8 µM
11 | NC(N)=N/N=C(/c1ccccc1)c1ccccc1F | 4.03 µM | 25.8 µM | 1.14 | 12.9 µM | 1.32 µM | > 100 µM | 0.911 µM | 12.5 µM | 2.37 | 12.3 µM | 8 | 25.6 | 2.96 µM | > 100 µM | 0.628 | 11.5 µM | 5.48 µM | 26.9 µM | 5.57 µM | > 100 µM
12 | Cc1nc2c(Br)cc(Br)cc2c(=O)n1-c1ccccc1NC1OCC(O)C(O)C1O (configuration not stated) | 30.6 µM and 14.5 µM | > 100 µM and 50.7 µM |  | 67 µM | 15.1 µM and > 32.7 µM | 46.6 µM and > 81.2 µM | 36.9 µM and 13.4 µM | > 100 µM and 31.3 µM |  | 65.7 µM and 40.2 µM |  | > 100 | 18.6 µM and 7.03 µM | 43.4 µM and 15.7 µM |  | 66.2 µM and 53.5 µM | 45.1 µM and 5.56 µM | > 100 µM and 34 µM | 19.5 µM and 3.5 µM | 61.1 µM and > 36.1 µM
